Data from patent US11447460B2, “Compounds and compositions for treating conditions associated with NLRP activity” (Novartis AG, priority 2016, dated 2022).
Read-outs that look alike come from different tables or passages of the source.

Tested on: IL-1β production in PMA-differentiated THP-1 cells
Experiment: IL-1β production in PMA-differentiated THP-1 cells stimulated with gramicidin (hTHP-1 assay, 2% bovine serum; Bioassays 1 and 2)
Type: cell-based, human
Settings: hTHP-1 assay containing 2% bovine serum, Table 12, by Example #, read-out: Average IC50 of compounds in hTHP-1 assay
Experimental: IL-1β Production in PMA-Differentiated THP-1 Cells Stimulated with Gramicidin.
Cell culture-THP-1 cells were purchased from the American Type Culture Collection and sub-cultured according to instructions from the supplier. Prior to experiments, cells were cultured in RPMI 1640 containing 10% heat inactivated FBS, penicillin (100 units/ml) and streptomycin (100 μg/ml), and maintained in log phase prior to experimental setup. Prior to the experiment THP-1 were treated with PMA (Phorbol 12-myristate 13-acetate) (10 μg/ml) for 24 hours. The day of the experiment the media was removed and attaching cells were treated with trypsin for 2 minutes, cells were then collected, washed with PBS (phosphate buffer saline), spin down, resuspended in 2% heat inactivated FBS with RPMI at a concentration of 1×10^6 cells/ml, and 100 ul was plated in a 96 well plate. Cells were incubated with compounds for 1 hours and then stimulated with Gramicidin (5 μM) (Enzo) for 2 hours. Cell free supernatant was collected and the production of IL-1β was evaluated by ELISA. Compounds were dissolved in dimethyl sulfoxide (DMSO) and added to the culture medium to achieve desired concentration (e.g. 100, 30, 10, 3, 1, 0.3 or 0.1 μM). A vehicle only control was run concurrently with each experiment. Final DMSO concentration was 1%.
THP-1 cells were purchased from the American Type Culture Collection and sub-cultured according to instructions from the supplier. Prior to experiments, cells were cultured in complete RPMI 1640 (containing 10% heat inactivated FBS, penicillin (100 units/ml) and streptomycin (100 μg/ml)), and maintained in log phase prior to experimental setup. Prior to the experiment THP-1 were treated with PMA (Phorbol 12-myristate 13-acetate) (20 ng/ml) for 16-18 hours. On the day of the experiment the media was removed and adherent cells were detached with trypsin for 5 minutes. Cells were then harvested, washed with complete RPMI 1640, spun down, resuspended in RPMI 1640 (containing 2% heat inactivated FBS, penicillin (100 units/ml) and streptomycin (100 μg/ml). The cells were plated in a 384-well plate at a density of 50,000 cells/well (final assay volume 50 μl). Compounds were dissolved in dimethyl sulfoxide (DMSO) and added to the culture medium to achieve desired concentration (e.g. 100, 33, 11, 3.7, 1.2, 0.41, 0.14, 0.046, 0.015, 0.0051, 0.0017 μM). Cells were incubated with compounds for 1 hour and then stimulated with gramicidin (5 μM) (Enzo) for 2 hours. Cell free supernatant was collected and the production of IL-10 was evaluated by HTRF (cisbio). A vehicle only control was run concurrently with each experiment. Final DMSO concentration was 0.38%.
Compounds tested with protocols 1 and 2 provided IC50 values that are within the variability of the assay.
Tables 12 and 13 show the biological activity of compounds in hTHP-1 assay containing 2% bovine serum: <1 μM=“++++”; ≥1 and <5 μM=“+++”; ≥5 and <15 μM=“++”; ≥15 and <60 μM=“+”.

Compound	IC50 (Homo sapiens, THP-1)	IC50
CC(C)c1cc(C#N)cc(C(C)C)c1CC(=O)NS(=O)(=O)c1cccc(C(C)(C)O)c1 [Example 26, 2-(4-cyano-2,6-diisopropylphenyl)-N-(3-(2-hydroxypropan-2-yl)phenylsulfonyl)acetamide]	1 to 5 µM	
CC(C)c1cc(F)cc(C(C)C)c1CC(=O)NS(=O)(=O)c1cc(Cl)cc(C(C)(C)O)c1 [Example 27, N-(3-chloro-5-(2-hydroxypropan-2-yl)phenylsulfonyl)-2-(4-fluoro-2,6-diisopropylphenyl)acetamide]	1 to 5 µM	
CC(C)c1cc(C#N)cc(C(C)C)c1CC(=O)NS(=O)(=O)c1cc(Cl)cc(C(C)(C)O)c1 [Example 28, N-(3-chloro-5-(2-hydroxypropan-2-yl)phenylsulfonyl)-2-(4-cyano-2,6-diisopropylphenyl)acetamide]	1 to 5 µM	
CC(C)c1cc(F)cc(C(C)C)c1CC(=O)NS(=O)(=O)c1cc(-c2ccncc2)cc(C(C)(C)O)c1 [Example 29, 2-(4-fluoro-2,6-diisopropylphenyl)-N-(3-(2-hydroxypropan-2-yl)-5-(pyridin-4-yl)phenylsulfonyl)acetamide]	15 to 60 µM	
CC(C)c1cc(F)cc(C(C)C)c1CC(=O)NS(=O)(=O)c1cc(C(C)(C)O)cc(C(C)(C)O)c1 [Example 30, N-(3,5-bis(2-hydroxypropan-2-yl)phenylsulfonyl)-2-(4-fluoro-2,6-diisopropylphenyl)acetamide]	5 to 15 µM	
CC(C)c1cc(C#N)cc(C(C)C)c1CC(=O)NS(=O)(=O)c1cc(C(C)(C)O)cc(C(C)(C)O)c1 [Example 31, N-(3,5-bis(2-hydroxypropan-2-yl)phenylsulfonyl)-2-(4-cyano-2,6-diisopropylphenyl)acetamide]	5 to 15 µM	
CC(C)c1cc(F)cc(C(C)C)c1CC(=O)NS(=O)(=O)c1cc(-c2ccccc2)cc(C(C)(C)O)c1 [Example 32, 2-(4-fluoro-2,6-diisopropylphenyl)-N-(5-(2-hydroxypropan-2-yl)biphenyl-3-ylsulfonyl)acetamide]	5 to 15 µM	
CC(C)c1cc(C#N)cc(C(C)C)c1CC(=O)NS(=O)(=O)c1cc(-c2ccccc2)cc(C(C)(C)O)c1 [Example 33, 2-(4-cyano-2,6-diisopropylphenyl)-N-(5-(2-hydroxypropan-2-yl)biphenyl-3-ylsulfonyl)acetamide]	5 to 15 µM	
CC(C)c1cc(F)cc(C(C)C)c1CC(=O)NS(=O)(=O)c1ccc(C(C)(C)O)cc1 [Example 34, 2-(4-fluoro-2,6-diisopropylphenyl)-N-(4-(2-hydroxypropan-2-yl)phenylsulfonyl)acetamide]	1 to 5 µM	
CC(C)c1cc(C#N)cc(C(C)C)c1CC(=O)NS(=O)(=O)c1ccc(C(C)(C)O)cc1 [Example 35, 2-(4-cyano-2,6-diisopropylphenyl)-N-(4-(2-hydroxypropan-2-yl)phenylsulfonyl)acetamide]	1 to 5 µM	
CC(C)c1cc(F)cc(C(C)C)c1CC(=O)NS(=O)(=O)c1ccc(C(C)(C)O)nc1 [Example 36, 2-(4-fluoro-2,6-diisopropylphenyl)-N-(6-(2-hydroxypropan-2-yl)pyridin-3-ylsulfonyl)acetamide]	1 to 5 µM	
CC(C)c1cc(C#N)cc(C(C)C)c1CC(=O)NS(=O)(=O)c1ccc(C(C)(C)O)nc1 [Example 37, 2-(4-cyano-2,6-diisopropylphenyl)-N-(6-(2-hydroxypropan-2-yl)pyridin-3-ylsulfonyl)acetamide]	5 to 15 µM	
CC(C)c1cc(F)cc(C(C)C)c1CC(=O)NS(=O)(=O)c1cc(N2CCOCC2)cc(C(C)(C)O)c1 [Example 38, 2-(4-fluoro-2,6-diisopropylphenyl)-N-(3-(2-hydroxypropan-2-yl)-5-morpholinophenylsulfonyl)acetamide]	5 to 15 µM	
CC(C)c1cc(F)cc(C(C)C)c1CC(=O)NS(=O)(=O)c1ccc(S(F)(F)(F)(F)F)cc1 [Example 39]		15 to 60 µM
CC(C)c1cc(F)cc(C(C)C)c1CC(=O)NS(=O)(=O)c1cnc2ccccc2c1 [Example 40, 2-(4-fluoro-2,6-diisopropylphenyl)-N-(quinolin-3-ylsulfonyl)acetamide]	15 to 60 µM	
